Experimental findings from patent US10100064B2, “Purine inhibitors of human phosphatidylinositol 3-kinase delta” (Merck Sharp & Dohme Corp., priority 2014, dated 2018) are described below.

One experiment concerns the target T1, PI3Kdelta (Homo sapiens, UniProt O00329).
T1 construct: purchased Upstate; Millipore 14-604
Briefly: HTRF PI3K biochemical assay, delta isoform. The conditions noted are these: 0.3 nM enzyme, 100 uM ATP, 5 uM PIP2, form screened (Neutral or TFA salt) given per compound. Put shortly: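 PI3Kδ at 0.3 nM with 100 uM ATP and 5 uM PIP2, 10-point 3-fold dilutions, 15 min enzyme–compound pre-incubation, then 1 h reaction at room temperature. PIP3 formation detected by HTRF displacement of biotin-PIP3 from GST-GRP1-PH (665/620 nm ratio). IC50 corrected using a PIP3 standard curve.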

Another experiment addresses T2, PI3Kalpha (Homo sapiens, UniProt P42336).
T2 construct: purchased Upstate; Millipore 14-602
Briefly: HTRF PI3K biochemical assay, alpha isoform (selectivity versus delta). The conditions noted are these: relative ratio PI3K-alpha IC50 value / PI3K-delta IC50 value. In outline: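 Recombinant PI3Kα (0.5 nM) pre-incubated 15 min with compound, then reacted 1 h at room temperature with 5 μM PIP2 and 100 μM ATP. After EDTA stop, PIP3 measured by HTRF displacement of biotin-PIP3 from GST-GRP1 PH domain (665/620 nm). 10-point dose response; IC50 corrected using a PIP3 standard curve.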

Each structure is given as a SMILES string.

T2 sequence (P42336 whole entry): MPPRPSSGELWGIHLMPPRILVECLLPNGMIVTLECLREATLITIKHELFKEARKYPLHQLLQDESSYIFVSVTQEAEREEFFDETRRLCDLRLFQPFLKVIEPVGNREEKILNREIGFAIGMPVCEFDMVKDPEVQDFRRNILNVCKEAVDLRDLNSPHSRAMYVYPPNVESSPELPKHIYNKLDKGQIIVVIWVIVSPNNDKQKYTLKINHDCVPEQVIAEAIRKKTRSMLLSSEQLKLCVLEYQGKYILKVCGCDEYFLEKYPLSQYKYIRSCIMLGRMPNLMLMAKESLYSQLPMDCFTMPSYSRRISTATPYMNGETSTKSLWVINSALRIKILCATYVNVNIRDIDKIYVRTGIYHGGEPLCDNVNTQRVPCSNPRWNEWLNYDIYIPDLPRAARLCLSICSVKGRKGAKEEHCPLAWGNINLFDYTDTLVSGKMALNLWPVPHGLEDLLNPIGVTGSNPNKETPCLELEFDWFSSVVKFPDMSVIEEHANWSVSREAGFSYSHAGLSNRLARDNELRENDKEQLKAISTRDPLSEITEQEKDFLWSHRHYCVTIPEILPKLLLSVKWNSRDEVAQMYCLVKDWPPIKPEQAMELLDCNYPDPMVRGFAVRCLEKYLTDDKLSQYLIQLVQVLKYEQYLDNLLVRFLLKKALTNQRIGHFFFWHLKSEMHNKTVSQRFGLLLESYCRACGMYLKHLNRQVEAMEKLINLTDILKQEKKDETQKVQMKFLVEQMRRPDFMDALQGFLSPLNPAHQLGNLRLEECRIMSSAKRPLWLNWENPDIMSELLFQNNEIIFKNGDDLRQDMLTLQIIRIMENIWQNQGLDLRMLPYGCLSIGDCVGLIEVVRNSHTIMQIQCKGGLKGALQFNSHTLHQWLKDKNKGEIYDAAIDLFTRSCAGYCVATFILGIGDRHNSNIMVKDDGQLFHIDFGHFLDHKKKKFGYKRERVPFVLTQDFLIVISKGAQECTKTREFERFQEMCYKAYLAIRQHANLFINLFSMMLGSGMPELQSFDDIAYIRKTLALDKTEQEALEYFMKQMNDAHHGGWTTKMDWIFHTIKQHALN
T2 sequence (P27986 whole entry partner): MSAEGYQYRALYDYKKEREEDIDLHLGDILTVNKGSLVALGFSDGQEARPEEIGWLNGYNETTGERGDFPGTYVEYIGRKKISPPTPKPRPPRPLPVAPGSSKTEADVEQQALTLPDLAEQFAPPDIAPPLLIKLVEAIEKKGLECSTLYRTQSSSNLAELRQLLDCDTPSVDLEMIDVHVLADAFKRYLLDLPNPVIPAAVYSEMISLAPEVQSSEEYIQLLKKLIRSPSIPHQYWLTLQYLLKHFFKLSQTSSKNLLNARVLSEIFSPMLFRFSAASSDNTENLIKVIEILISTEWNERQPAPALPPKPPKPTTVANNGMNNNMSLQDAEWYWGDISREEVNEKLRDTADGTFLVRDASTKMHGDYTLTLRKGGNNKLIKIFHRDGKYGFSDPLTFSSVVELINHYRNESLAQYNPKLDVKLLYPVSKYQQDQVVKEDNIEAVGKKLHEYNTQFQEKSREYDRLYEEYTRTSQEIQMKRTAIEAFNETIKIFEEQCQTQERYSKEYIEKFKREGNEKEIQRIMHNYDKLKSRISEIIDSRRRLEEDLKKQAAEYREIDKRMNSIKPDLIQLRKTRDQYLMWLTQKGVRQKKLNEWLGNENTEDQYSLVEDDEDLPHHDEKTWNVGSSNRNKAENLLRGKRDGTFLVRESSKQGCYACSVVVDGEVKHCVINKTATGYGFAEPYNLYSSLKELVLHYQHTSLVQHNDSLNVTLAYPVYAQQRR
T1 sequence (O00329 whole entry): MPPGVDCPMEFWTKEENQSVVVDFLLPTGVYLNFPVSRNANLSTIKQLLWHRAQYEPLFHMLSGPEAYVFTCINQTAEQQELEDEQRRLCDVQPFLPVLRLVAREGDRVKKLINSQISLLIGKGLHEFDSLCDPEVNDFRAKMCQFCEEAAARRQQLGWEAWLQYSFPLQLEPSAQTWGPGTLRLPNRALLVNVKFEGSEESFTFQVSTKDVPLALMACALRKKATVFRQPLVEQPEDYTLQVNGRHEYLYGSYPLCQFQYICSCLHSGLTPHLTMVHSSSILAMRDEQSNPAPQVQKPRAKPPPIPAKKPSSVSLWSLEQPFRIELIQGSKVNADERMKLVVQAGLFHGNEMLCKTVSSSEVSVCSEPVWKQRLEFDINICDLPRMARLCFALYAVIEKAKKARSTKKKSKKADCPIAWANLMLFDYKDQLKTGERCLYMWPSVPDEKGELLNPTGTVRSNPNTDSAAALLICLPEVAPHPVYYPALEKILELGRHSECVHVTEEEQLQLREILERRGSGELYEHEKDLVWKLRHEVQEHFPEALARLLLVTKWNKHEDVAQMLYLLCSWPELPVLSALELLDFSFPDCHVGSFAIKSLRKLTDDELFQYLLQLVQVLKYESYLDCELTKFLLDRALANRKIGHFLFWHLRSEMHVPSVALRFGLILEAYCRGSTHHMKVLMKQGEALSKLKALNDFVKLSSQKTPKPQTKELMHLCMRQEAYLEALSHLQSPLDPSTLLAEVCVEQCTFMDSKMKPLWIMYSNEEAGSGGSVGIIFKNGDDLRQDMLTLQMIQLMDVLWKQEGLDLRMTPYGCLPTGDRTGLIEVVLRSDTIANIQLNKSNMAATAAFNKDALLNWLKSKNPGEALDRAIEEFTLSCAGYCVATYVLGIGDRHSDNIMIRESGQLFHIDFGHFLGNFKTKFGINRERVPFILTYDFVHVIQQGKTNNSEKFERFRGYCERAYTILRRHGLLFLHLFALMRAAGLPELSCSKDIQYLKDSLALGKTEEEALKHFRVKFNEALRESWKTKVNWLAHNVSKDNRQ
T1 sequence (P27986 whole entry partner): as the sequence (P27986 whole entry partner) above

Consider `CCn1c(-c2cnc(C)nc2)nc2c(NC3CCc4ncn(C5CC5)c4C3)ncnc21` (single isomer, unassigned) [Compound 5-1, (S or R)-N-(1-cyclopropyl-4,5,6,7-tetrahydro-1H-benzimidazol-6-yl)-9-ethyl-8-(2-methylpyrimidin-5-yl)-9H-purin-6-amine], for which, at PI3Kdelta, the 50% inhibitory concentration (IC50) – broadly, the midpoint of a concentration-inhibition curve – was 0.0055 µM. Further, the “Selectivity versus PI3Kalpha” value on PI3Kalpha is more than 10.
The corresponding values for `CCn1c(-c2ccc(C(F)(F)F)nc2)nc2c(NC3CCc4ncn(C5CC5)c4C3)ncnc21` (single isomer, unassigned) [Compound 5-2, (S or R)-N-(1-cyclopropyl-4,5,6,7-tetrahydro-1H-benzimidazol-6-yl)-9-ethyl-8-[6-(trifluoromethyl)pyridin-3-yl]-9H-purin-6-amine] are 0.0033 µM and more than 10.
In the same order, the values of `CCn1c(-c2ccc(C(F)(F)F)nc2)nc2c(NC3CCc4ncn(C5CC5)c4C3)ncnc21` (single isomer, unassigned) [Compound 5-3, (S or R)-N-(1-cyclopropyl-4,5,6,7-tetrahydro-1H-benzimidazol-6-yl)-9-ethyl-8-[6-(trifluoromethyl)pyridin-3-yl]-9H-purin-6-amine] are 0.18 µM and more than 10.
Regarding `CCn1c(-c2ccc(C(F)(F)F)cc2)nc2c(NC3CCc4ncn(C5CC5)c4C3)ncnc21` (single isomer, unassigned) [Compound 5-4, (S or R)-N-(1-cyclopropyl-4,5,6,7-tetrahydro-1H-benzimidazol-6-yl)-9-ethyl-8-[4-(trifluoromethyl)phenyl]-9H-purin-6-amine], the IC50 at PI3Kdelta stood at 0.18 µM. For the same molecule, the “Selectivity versus PI3Kalpha” value on PI3Kalpha is listed as more than 10.
In the same order, the values of `CCn1c(-c2ccc(C(F)(F)F)cc2)nc2c(NC3CCc4ncn(C5CC5)c4C3)ncnc21` (single isomer, unassigned) [Compound 5-5, (S or R)-N-(1-cyclopropyl-4,5,6,7-tetrahydro-1H-benzimidazol-6-yl)-9-ethyl-8-[4-(trifluoromethyl)phenyl]-9H-purin-6-amine] are 0.0051 µM and more than 10.
Take `CCn1c(C(F)F)nc2c(NC3CCc4ncn(C5CC5)c4C3)ncnc21` (single isomer, unassigned) [Compound 5-6, (S or R)-N-(1-cyclopropyl-4,5,6,7-tetrahydro-1H-benzimidazol-6-yl)-8-(difluoromethyl)-9-ethyl-9H-purin-6-amine]: the IC50 on PI3Kdelta is 0.17 µM. On PI3Kalpha, the “Selectivity versus PI3Kalpha” value is recorded as more than 10.
As for `CCn1c(-c2cnc(C)nc2)nc2c(NC3CCc4nc(C)n(C5CC5)c4C3)ncnc21` (single isomer, unassigned) [Compound 5-7, (S or R)-N-(1-cyclopropyl-2-methyl-4,5,6,7-tetrahydro-1H-benzimidazol-6-yl)-9-ethyl-8-(2-methylpyrimidin-5-yl)-9H-purin-6-amine], the half-maximal inhibitory concentration (IC50) at PI3Kdelta amounted to 0.019 µM. The “Selectivity versus PI3Kalpha” value on PI3Kalpha was more than 10.
As for `CCc1nc2c(n1C1CC1)CC(Nc1ncnc3c1nc(-c1cnc(C)nc1)n3CC)CC2` (single isomer, unassigned) [Compound 5-8, (S or R)-N-(1-cyclopropyl-2-ethyl-4,5,6,7-tetrahydro-1H-benzimidazol-6-yl)-9-ethyl-8-(2-methylpyrimidin-5-yl)-9H-purin-6-amine], the concentration for half-maximal inhibition (IC50) on PI3Kdelta is 0.021 µM. Also, the “Selectivity versus PI3Kalpha” value on PI3Kalpha is on record as more than 10.
The corresponding values for `CCn1c(C(=O)NCC(F)(F)F)nc2c(NC3CCc4ncn(C5CC5)c4C3)ncnc21` (single isomer, unassigned) [Compound 5-9, (S or R)-6-[(1-cyclopropyl-4,5,6,7-tetrahydro-1H-benzimidazol-6-yl)amino]-9-ethyl-N-(2,2,2-trifluoroethyl)-9H-purine-8-carboxamide] are 0.051 µM and more than 10.
